Test results taken from ChEMBL document CHEMBL3885881, “DrugMatrix”.

Species: Rattus norvegicus
Test: DrugMatrix - Regimen: Daily Repeat
Assay type: toxicity, organism-based, Sprague-Dawley
Set-up: regimen Daily Repeat, gender Male, age 6-8 weeks
Details: in vivo, po, route oral GAVAGE, vehicle .5 % CMC; for ABSOLUTE BASOPHIL / ABSOLUTE EOSINOPHIL / ABSOLUTE LYMPHOCYTE / ABSOLUTE MONOCYTE / ABSOLUTE SEGMENTED NEUTROPHIL / BASOPHIL / EOSINOPHIL / HEMATOCRIT / LEUKOCYTE COUNT / LYMPHOCYTE / MEAN CORPUSCULAR HEMOGLOBIN / MEAN CORPUSCULAR HEMOGLOBIN CONCENTRATION / MEAN CORPUSCULAR VOLUME / MONOCYTE / NEUTROPHIL / NUCLEATED RED BLOOD CELLS / PLATELET COUNT: tissue Blood; for ALANINE AMINOTRANSFERASE / ALBUMIN / ALKALINE PHOSPHATASE / ASPARTATE AMINOTRANSFERASE / BLOOD UREA NITROGEN / CARBON DIOXIDE / CHLORIDE / CHOLESTEROL / CREATININE / GLUCOSE / LACTATE DEHYDROGENASE / LIPASE / PHOSPHORUS / TOTAL BILIRUBIN / TOTAL PROTEIN / URIC ACID / SODIUM: tissue Plasma
[1] = 0 mg/kg, 72 h, dose level Control, time 3 day
[2] = 0 mg/kg, 120 h, dose level Control, time 5 day
[3] = 23 mg/kg, 72 h, dose level High, time 3 day
[4] = 23 mg/kg, 120 h, dose level High, time 5 day
[5] = […], 72 h, dose 2.5 mg/Kg, dose level Low, time 3 day
[6] = […], 120 h, dose 2.5 mg/Kg, dose level Low, time 5 day

## Cc1cc2c(s1)Nc1ccccc1N=C2N1CCN(C)CC1 [OLANZAPINE]
[1]
  ABSOLUTE BASOPHIL: 0 CELLS/uL
  ABSOLUTE EOSINOPHIL: 47.67 CELLS/uL
  ABSOLUTE LYMPHOCYTE: 15937.67 CELLS/uL
  ABSOLUTE MONOCYTE: 138.33 CELLS/uL
  ABSOLUTE SEGMENTED NEUTROPHIL: 1443 CELLS/uL
  BASOPHIL: 0%
  EOSINOPHIL: 0.33%
  HEMATOCRIT: 34.43%
  LEUKOCYTE COUNT: 17.57 x10E3/uL
  LYMPHOCYTE: 90.33%
  MEAN CORPUSCULAR HEMOGLOBIN: 24.6 pg
  MEAN CORPUSCULAR HEMOGLOBIN CONCENTRATION: 38.88 G/DL
  MEAN CORPUSCULAR VOLUME: 63.27 fL
  MONOCYTE: 0.83%
  NEUTROPHIL: 8.5%
  NUCLEATED RED BLOOD CELLS: 0 /100WBC
  PLATELET COUNT: 1298 x10E3/uL
  ALANINE AMINOTRANSFERASE: 47.67 u/L
  ALBUMIN: 4.18 G/DL
  ALKALINE PHOSPHATASE: 398.5 u/L
  ASPARTATE AMINOTRANSFERASE: 93.17 u/L
  BLOOD UREA NITROGEN: 16 mg/dL
  CARBON DIOXIDE: 29.17 mmol/L
  CHLORIDE: 98.17 MEQ/L
  CHOLESTEROL: 68.83 mg/dL
  CREATININE: 0.14 mg/dL
  GLUCOSE: 151.67 mg/dL
  LACTATE DEHYDROGENASE: 597.5 u/L
  LIPASE: 9.33 u/L
  PHOSPHORUS: 11.97 mg/dL
  TOTAL BILIRUBIN: 0.18 mg/dL
  TOTAL PROTEIN: 5.82 G/DL
  URIC ACID: 1.48 mg/dL
[2]
  ABSOLUTE BASOPHIL: 0 CELLS/uL
  ABSOLUTE EOSINOPHIL: 31 CELLS/uL
  ABSOLUTE LYMPHOCYTE: 14327.83 CELLS/uL
  ABSOLUTE MONOCYTE: 102.83 CELLS/uL
  ABSOLUTE SEGMENTED NEUTROPHIL: 1321.67 CELLS/uL
  BASOPHIL: 0%
  EOSINOPHIL: 0.17%
  HEMATOCRIT: 36.1%
  LEUKOCYTE COUNT: 15.78 x10E3/uL
  LYMPHOCYTE: 90.5%
  MEAN CORPUSCULAR HEMOGLOBIN: 24.48 pg
  MEAN CORPUSCULAR HEMOGLOBIN CONCENTRATION: 39.22 G/DL
  MEAN CORPUSCULAR VOLUME: 62.4 fL
  MONOCYTE: 0.67%
  NEUTROPHIL: 8.67%
  NUCLEATED RED BLOOD CELLS: 0.17 /100WBC
  PLATELET COUNT: 1211.67 x10E3/uL
  ALANINE AMINOTRANSFERASE: 49 u/L
  ALBUMIN: 4.27 G/DL
  ALKALINE PHOSPHATASE: 356.67 u/L
  ASPARTATE AMINOTRANSFERASE: 90.17 u/L
  BLOOD UREA NITROGEN: 20.5 mg/dL
  CARBON DIOXIDE: 29.17 mmol/L
  CHLORIDE: 98 MEQ/L
  CHOLESTEROL: 69.83 mg/dL
  CREATININE: 0.21 mg/dL
  GLUCOSE: 149.83 mg/dL
  LACTATE DEHYDROGENASE: 322 u/L
  LIPASE: 10 u/L
  PHOSPHORUS: 12 mg/dL
  SODIUM: 142.8 MEQ/L
  TOTAL BILIRUBIN: 0.17 mg/dL
  TOTAL PROTEIN: 6.1 G/DL
  URIC ACID: 1.68 mg/dL
[3]
  ABSOLUTE BASOPHIL: 0 CELLS/uL
  ABSOLUTE EOSINOPHIL: 0 CELLS/uL
  ABSOLUTE LYMPHOCYTE: 12570 CELLS/uL
  ABSOLUTE MONOCYTE: 145.67 CELLS/uL
  ABSOLUTE SEGMENTED NEUTROPHIL: 851 CELLS/uL
  BASOPHIL: 0%
  EOSINOPHIL: 0%
  HEMATOCRIT: 37.27%
  LEUKOCYTE COUNT: 13.57 x10E3/uL
  LYMPHOCYTE: 92.67%
  MEAN CORPUSCULAR HEMOGLOBIN: 24.63 pg
  MEAN CORPUSCULAR HEMOGLOBIN CONCENTRATION: 39.1 G/DL
  MEAN CORPUSCULAR VOLUME: 63 fL
  MONOCYTE: 1%
  NEUTROPHIL: 6.33%
  NUCLEATED RED BLOOD CELLS: 0 /100WBC
  PLATELET COUNT: 1303 x10E3/uL
  ALANINE AMINOTRANSFERASE: 52 u/L
  ALBUMIN: 4.4 G/DL
  ALKALINE PHOSPHATASE: 415.67 u/L
  ASPARTATE AMINOTRANSFERASE: 84 u/L
  BLOOD UREA NITROGEN: 21.33 mg/dL
  CARBON DIOXIDE: 26.33 mmol/L
  CHLORIDE: 102 MEQ/L
  CHOLESTEROL: 86.67 mg/dL
  CREATININE: 0.21 mg/dL
  GLUCOSE: 155.67 mg/dL
  LACTATE DEHYDROGENASE: 203.33 u/L
  LIPASE: 9.67 u/L
  PHOSPHORUS: 11.47 mg/dL
  SODIUM: 144.27 MEQ/L
  TOTAL BILIRUBIN: 0.23 mg/dL
  TOTAL PROTEIN: 5.97 G/DL
  URIC ACID: 1.83 mg/dL
[4]
  ABSOLUTE BASOPHIL: 0 CELLS/uL
  ABSOLUTE EOSINOPHIL: 52 CELLS/uL
  ABSOLUTE LYMPHOCYTE: 13243.33 CELLS/uL
  ABSOLUTE MONOCYTE: 98.33 CELLS/uL
  ABSOLUTE SEGMENTED NEUTROPHIL: 1106.33 CELLS/uL
  BASOPHIL: 0%
  EOSINOPHIL: 0.33%
  HEMATOCRIT: 38.23%
  LEUKOCYTE COUNT: 14.5 x10E3/uL
  LYMPHOCYTE: 91.33%
  MEAN CORPUSCULAR HEMOGLOBIN: 24.67 pg
  MEAN CORPUSCULAR HEMOGLOBIN CONCENTRATION: 39.5 G/DL
  MEAN CORPUSCULAR VOLUME: 62.5 fL
  MONOCYTE: 0.67%
  NEUTROPHIL: 7.67%
  NUCLEATED RED BLOOD CELLS: 0 /100WBC
  PLATELET COUNT: 1008.67 x10E3/uL
  ALANINE AMINOTRANSFERASE: 50 u/L
  ALBUMIN: 4.4 G/DL
  ALKALINE PHOSPHATASE: 282.67 u/L
  ASPARTATE AMINOTRANSFERASE: 108.67 u/L
  BLOOD UREA NITROGEN: 22.33 mg/dL
  CARBON DIOXIDE: 27.33 mmol/L
  CHLORIDE: 104.33 MEQ/L
  CHOLESTEROL: 78.33 mg/dL
  CREATININE: 0.26 mg/dL
  GLUCOSE: 150.33 mg/dL
  LACTATE DEHYDROGENASE: 306 u/L
  LIPASE: 9.33 u/L
  PHOSPHORUS: 11.63 mg/dL
  SODIUM: 146.17 MEQ/L
  TOTAL BILIRUBIN: 0.27 mg/dL
  TOTAL PROTEIN: 6.1 G/DL
  URIC ACID: 1.4 mg/dL
[5]
  ABSOLUTE BASOPHIL: 0 CELLS/uL
  ABSOLUTE EOSINOPHIL: 116 CELLS/uL
  ABSOLUTE LYMPHOCYTE: 13788.67 CELLS/uL
  ABSOLUTE MONOCYTE: 239.33 CELLS/uL
  ABSOLUTE SEGMENTED NEUTROPHIL: 1189.33 CELLS/uL
  BASOPHIL: 0%
  EOSINOPHIL: 1%
  HEMATOCRIT: 35.03%
  LEUKOCYTE COUNT: 15.33 x10E3/uL
  LYMPHOCYTE: 90%
  MEAN CORPUSCULAR HEMOGLOBIN: 24.27 pg
  MEAN CORPUSCULAR HEMOGLOBIN CONCENTRATION: 38.63 G/DL
  MEAN CORPUSCULAR VOLUME: 62.87 fL
  MONOCYTE: 1.67%
  NEUTROPHIL: 7.33%
  NUCLEATED RED BLOOD CELLS: 0 /100WBC
  PLATELET COUNT: 1228.33 x10E3/uL
  ALANINE AMINOTRANSFERASE: 53.33 u/L
  ALBUMIN: 4.17 G/DL
  ALKALINE PHOSPHATASE: 352.67 u/L
  ASPARTATE AMINOTRANSFERASE: 94.33 u/L
  BLOOD UREA NITROGEN: 18 mg/dL
  CARBON DIOXIDE: 26.67 mmol/L
  CHLORIDE: 101 MEQ/L
  CHOLESTEROL: 73.67 mg/dL
  CREATININE: 0.19 mg/dL
  GLUCOSE: 159.67 mg/dL
  LACTATE DEHYDROGENASE: 472.67 u/L
  LIPASE: 10.33 u/L
  PHOSPHORUS: 12.4 mg/dL
  SODIUM: 143.67 MEQ/L
  TOTAL BILIRUBIN: 0.23 mg/dL
  TOTAL PROTEIN: 5.97 G/DL
  URIC ACID: 1.73 mg/dL
[6]
  ABSOLUTE BASOPHIL: 0 CELLS/uL
  ABSOLUTE EOSINOPHIL: 0 CELLS/uL
  ABSOLUTE LYMPHOCYTE: 12300.67 CELLS/uL
  ABSOLUTE MONOCYTE: 35.33 CELLS/uL
  ABSOLUTE SEGMENTED NEUTROPHIL: 2030.67 CELLS/uL
  BASOPHIL: 0%
  EOSINOPHIL: 0%
  HEMATOCRIT: 34.77%
  LEUKOCYTE COUNT: 14.37 x10E3/uL
  LYMPHOCYTE: 84.67%
  MEAN CORPUSCULAR HEMOGLOBIN: 25.5 pg
  MEAN CORPUSCULAR HEMOGLOBIN CONCENTRATION: 40.57 G/DL
  MEAN CORPUSCULAR VOLUME: 62.8 fL
  MONOCYTE: 0.33%
  NEUTROPHIL: 15%
  NUCLEATED RED BLOOD CELLS: 0 /100WBC
  PLATELET COUNT: 1181 x10E3/uL
  ALANINE AMINOTRANSFERASE: 50.67 u/L
  ALBUMIN: 4.2 G/DL
  ALKALINE PHOSPHATASE: 327.67 u/L
  ASPARTATE AMINOTRANSFERASE: 96.67 u/L
  BLOOD UREA NITROGEN: 18.67 mg/dL
  CARBON DIOXIDE: 24.67 mmol/L
  CHLORIDE: 101 MEQ/L
  CHOLESTEROL: 82 mg/dL
  CREATININE: 0.23 mg/dL
  GLUCOSE: 160.67 mg/dL
  LACTATE DEHYDROGENASE: 448.33 u/L
  LIPASE: 9.67 u/L
  PHOSPHORUS: 12.83 mg/dL
  SODIUM: 144.87 MEQ/L
  TOTAL BILIRUBIN: 0.27 mg/dL
  TOTAL PROTEIN: 5.9 G/DL
  URIC ACID: 1.7 mg/dL
